Test results taken from article PMC7343746, “(2S, 4R)-4-[^18F]Fluoroglutamine for In vivo PET Imaging of Glioma Xenografts in Mice: an Evaluation of Multiple Pharmacokinetic Models” (Molecular Imaging and Biology, 2020).

Columns and labels:
[1] = test system: patient-derived BT3 glioma cells; assay: Ex vivo autoradiography of brain cryosections, orthotopic glioma; format: in vivo, BALB/cOlaHsd-Foxn1^nu mouse; details: for Autoradiography TBRmean: n = 12 brain sections
From the text: See Suppl. Materials in ESM for detailed descriptions of biodistribution, stability, cryosectioning, autoradiography, and histology.

[2] = In vivo stability analysis, plasma precipitation assay; set-up: species or system C57BL/6J and Foxn1^nu/nu mice; details: after 60 min
Method: Tracer in vivo stability studies were performed with 12 mice consisting of two groups; 6 1-year-old male C57BL/6J and 6 3-month-old female Foxn1^nu/nu mice.
Twelve non-tumor-bearing control mice (6 C57BL/6J and 6 Foxn1^nu/nu) were injected with 9–14 MBq of tracer before a 200-μL blood sample was drawn into a heparinized vial and kept on ice. After 15 min, a second sample was collected during animal sacrifice. Whole blood was weighed and measured for radioactivity before being centrifuged at 730×g and 5 °C for 5 min, separated into plasma and blood cell fractions, and then separately weighed and measured. The values were used along with age, gender, and animal model-specific hematocrit values (reported by suppliers) to calculate the plasma radioactivity fraction of the whole-blood radioactivity (Eq. 1):1 Plasma Activity Fraction=Cp/CRBC+Cp=ρpCpHCT/ρbCb−ρpCp1−HCT+ρpCpHCT where C = radioactivity concentration, ρ = density, and HCT = hematocrit. […]
Aliquots of plasma were precipitated with 2.5 × (volume) methanol, vortexed, and centrifuged at 11,000×g for 5 min. The pellet and supernatant fractions were separated and measured for radioactivity to give the radioactivity fraction of the plasma that was trapped or bound to proteins (Eq. 2):2 Unbound plasma fraction=Csup/Cpel+Csup where C = radioactivity of subscripts which denote the following: sup = supernatant and pel = pellet. […]

Autoradiography TBRmean ([1]; Subject A): 8.9 ± 1.1 (range 7.2–10.5) | Autoradiography TBRmean ([1]; Subject B): 9.9 ± 0.7 (range 8.9–11.0) | Autoradiography TBRmean ([1]; Subject C): 7.8 ± 0.4 (range 7.3–8.4) | Autoradiography TBR, average ([1]; n = 3 subjects, 36 sections): 8.9 ± 1.1 | Plasma radioactivity bound to or incorporated into proteins [2]: roughly 25%
SMILES: NC(=O)[C@H]([18F])C[C@H](N)C(=O)O [[^18F]FGln, (2S, 4R)-4-[^18F]fluoroglutamine]
